This note sets out measurements from US12201624B2, “Compositions comprising mixtures of compounds and uses thereof” (Prostasis, LLC, priority 2021, dated 2025).

A short description of the data set: in vivo. The source says:
In all studies described below, animals on the test diet received either a high fat diet (HFD) or a low-fat diet (LFD) ad libitum, with the diet further containing the components listed in Table 5.
Adult female wild-type C57/BL6 (Envigo) were used for the experiments. The animals were group housed in plastic cages (3-5 animals/cage) and had access to food and water ad libitum. Experiments were approved by the Institutional Animal Care and Use Committee of Brains On-Line LLC, South San Francisco, CA.
Mice were fed a HFD containing a composition comprising nicotinic acid, berberine, silibinin, lipoic acid and taurine (see Table 5) for 10 days. Subjects were euthanized, and plasma and brain samples were collected after 10 days feeding with a HFD containing the composition. The blood was collected into a vial already containing EDTA anticoagulant. The blood was centrifuged at 2500×g at 4° C. for 10 minutes. Supernatants were stored as plasma samples at −80° C. Immediately following blood collection, whole brains were rapidly extracted, placed into a pre-weighed tube, and weighed. Samples were snap frozen with liquid nitrogen.
Levels of nicotinic acid, berberine, silibinin (active form of Siliphos®), lipoic acid and taurine were quantified in plasma and brain samples by LC-MS/MS.

[1] abbreviates: female, C57/BL6, mouse, in vivo, 10 days.
[2] abbreviates: female, C57/BL6, mouse, in vivo.

The structures appear in SMILES notation. Some results are limits rather than exact numbers.

For `COc1cc(C2Oc3cc([C@H]4Oc5cc(O)cc(O)c5C(=O)[C@@H]4O)ccc3OC2CO)ccc1O` (stereo partly drawn) [Silibinin], under setting [1], the “Cumulative Brain” value was 12.9 pmol/g and the “Cumulative Plasma” value is on record as 21 nM.
Take `O=C(O)CCCCC1CCSS1` (stereo not drawn) [Lipoic acid]: the “Basal Plasma” value (basal plasma level, mice, LC-MS/MS) is listed as “<LLOQ”. For the same compound, under setting [2], the concentration at 10 days amounted to 68.2 nM. Further, the “Cumulative Brain” value under setting [1] worked out at 21 pmol/g. For the same compound, the “Basal Brain” value (mouse, in vivo) is listed as “<LLOQ”.
Consider `COc1ccc2cc3[n+](cc2c1OC)CCc1cc2c(cc1-3)OCO2` [Berberine], for which the “Cumulative Brain” value (brain after 10 days administration in HFD, mice) was 265 pmol/g. Further, under setting [2], the concentration at 10 days is 20.5 nM.
Turning to `O=C(O)c1cccnc1` [Nicotinic acid], under setting [2], the “Basal Brain” value is on record as 9.4 nmol/g and the concentration at 10 days was 1360 nM. The “Cumulative Brain” value under setting [1] stood at 12600 pmol/g. Further, where the note is “mouse, in vivo”, the “Basal Plasma” value is on record as “<LLOQ”.
